Active and inactive are the calls of the source. The rule behind the calls is not given here.
What was measured:
[1] = Drug uptake in human HeLa cell lysates assessed as drug penetration by measuring increase in fluorescence intensity at 1.5 uM incubated for 2 hrs by PKAc antibody immunostaining based Western blot analysis; format: ADME, subcellular
[2] = target: T1, cAMP-dependent protein kinase catalytic subunit alpha (Homo sapiens, UniProt P17612); assay: Binding affinity to recombinant human PKAC-alpha in human HeLa cells assessed as increase in intensity of fluorescent labeled bands at 5 uM incubated for 2 hrs in presence of forskolin by Western blot analysis; format: cell-based
[3] = target: T1, cAMP-dependent protein kinase catalytic subunit alpha; assay: Binding affinity to recombinant human spiked PKAC-alpha in human HeLa cells assessed as covalent compound-protein adduct formation by measuring multiple fluorescent band formation at 0.15 to 1 uM incubated for 1 hr by 5-TAMRA dye based Western blot analysis; format: cell-based; details: dose 0.15-1 µM
[4] = Drug uptake in live human HeLa cells assessed as drug penetration by measuring increase in fluorescence intensity at 5 uM incubated for 2 hrs by PKAc antibody immunostaining based Western blot analysis; format: ADME, cell-based
[5] = target: T1, cAMP-dependent protein kinase catalytic subunit alpha; assay: Binding affinity to recombinant human spiked PKAC-alpha in human U2OS cell lysates assessed as covalent compound-protein adduct formation at 1.5 uM incubated for 1 hr in presence of GSH by 5-TAMRA dye based Western blot analysis; format: subcellular
[6] = target: cAMP-dependent protein kinase catalytic subunit beta (Homo sapiens) (UniProt P22694); assay: Binding affinity to recombinant full length human spiked PKAC-beta in human PC-3 cell lysates assessed as irreversible compound-protein adduct formation by measuring remaining activity at 150 nM measured after 1 hr by […] immunostaining based Western blot analysis; format: subcellular
[7] = target: T1, cAMP-dependent protein kinase catalytic subunit alpha; assay: Binding affinity to recombinant human spiked PKAC-alpha in human U2OS cell lysates assessed as covalent compound-protein adduct formation at 1.5 uM incubated for 1 hr in presence of PK inhibitor, staurosporin by 5-TAMRA dye based Western blot analysis; format: subcellular
[8] = target: T1, cAMP-dependent protein kinase catalytic subunit alpha; assay: Binding affinity to recombinant human spiked PKAC-alpha in human U2OS cell lysates assessed as covalent compound-protein adduct formation at 1.5 uM incubated for 1 hr by 5-TAMRA dye based Western blot analysis; format: subcellular
[9] = test system: RAC-gamma serine/threonine-protein kinase (Homo sapiens), Q9Y243 [S472D]; assay: Binding affinity to N-terminal 6His-tagged active recombinant human spiked Akt3 S472D mutant (117 to end residues) in human PC-3 cell lysates assessed as irreversible compound-protein adduct formation by measuring remaining activity at 150 nM incubated for 1 hr by Akt3 antibody immunostaining based Western blot analysis; format: subcellular
[10] = target: T1, cAMP-dependent protein kinase catalytic subunit alpha; assay: Binding affinity to recombinant human active PKAC-alpha assessed as compound-protein adduct formation by measuring formation of three bands at 1.5 uM incubated for 1 hr by 5-TAMRA dye based immunostaining analysis
[11] = target: T2, Aurora kinase A (Homo sapiens) (UniProt O14965); assay: Binding affinity to N-terminal 6His-tagged active recombinant full length human spiked Aurora A in human PC-3 cell lysates assessed as irreversible compound-protein adduct formation by measuring remaining activity at 150 nM incubated for 1 hr by Aurora A antibody immunostaining based Western blot analysis; format: subcellular
T2 sequence (whole entry): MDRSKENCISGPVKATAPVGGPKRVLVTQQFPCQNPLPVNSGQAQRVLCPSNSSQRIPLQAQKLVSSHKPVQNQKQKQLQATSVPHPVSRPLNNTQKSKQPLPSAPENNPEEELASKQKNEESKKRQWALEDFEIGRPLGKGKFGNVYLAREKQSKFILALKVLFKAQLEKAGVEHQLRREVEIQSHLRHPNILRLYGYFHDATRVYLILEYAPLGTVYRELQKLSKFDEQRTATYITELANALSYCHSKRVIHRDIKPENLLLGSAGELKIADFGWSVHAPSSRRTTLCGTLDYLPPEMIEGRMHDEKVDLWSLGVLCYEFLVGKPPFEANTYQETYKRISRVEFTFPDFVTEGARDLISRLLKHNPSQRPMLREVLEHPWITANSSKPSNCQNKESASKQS

[12] = test system: RAC-gamma serine/threonine-protein kinase (Homo sapiens), Q9Y243 [S472D]; assay: Binding affinity to N-terminal 6His-tagged active recombinant human spiked Akt3 S472D mutant (117 to end residues) in human PC-3 cell lysates assessed as irreversible compound-protein adduct formation at 150 nM incubated for 1 hr by 5-TAMRA dye based Western blot analysis; format: subcellular
[13] = target: Ribosomal protein S6 kinase alpha-5 (Homo sapiens) (UniProt O75582); assay: Binding affinity to N-terminal 6His-tagged recombinant human spiked MSK1 (2 to end residues) in human PC-3 cell lysates assessed as irreversible compound-protein adduct formation at 150 nM incubated for 1 hr by 5-TAMRA dye based Western blot analysis; format: subcellular
[14] = target: T1, cAMP-dependent protein kinase catalytic subunit alpha; assay: Binding affinity to recombinant human spiked PKAC-alpha in human PC-3 cell lysates assessed as covalent compound-protein adduct formation at 15 nM incubated for 1 hr by 5-TAMRA dye based Western blot analysis; format: subcellular
[15] = target: cAMP-dependent protein kinase catalytic subunit beta (Homo sapiens) (UniProt P22694); assay: Binding affinity to recombinant full length human spiked PKAC-beta in human PC-3 cell lysates assessed as irreversible compound-protein adduct formation at 150 nM incubated for 1 hr by 5-TAMRA dye based Western blot analysis; format: subcellular
[16] = target: T1, cAMP-dependent protein kinase catalytic subunit alpha; assay: Binding affinity to recombinant human spiked PKAC-alpha in human HeLa cells assessed as covalent compound-protein adduct formation by measuring multiple fluorescent band formation at 1.5 uM incubated for 1 hr by 5-TAMRA dye based Western blot analysis; format: cell-based
[17] = target: T2, Aurora kinase A (Homo sapiens); assay: Binding affinity to N-terminal 6His-tagged active recombinant full length human spiked Aurora A in human PC-3 cell lysates assessed as irreversible compound-protein adduct formation at 150 nM incubated for 1 hr by 5-TAMRA dye based Western blot analysis; format: subcellular
[18] = target: T1, cAMP-dependent protein kinase catalytic subunit alpha; assay: Binding affinity to recombinant human spiked PKAC-alpha in human HeLa cells assessed as covalent compound-protein adduct formation by measuring multiple fluorescent band formation at 150 nM incubated for 1 hr by 5-TAMRA dye based Western blot analysis; format: cell-based
[19] = target: T1, cAMP-dependent protein kinase catalytic subunit alpha; assay: Covalent inhibition of human recombinant PKAC-alpha assessed as inhibition constant
[20] = target: T1, cAMP-dependent protein kinase catalytic subunit alpha; assay: Binding affinity to human recombinant PKAC-alpha assessed as reduction in TGLI signal at 10 uM pretreated with compound followed by ARC-1063 fluorescent probe addition by time-gated luminescence intensity based displacement assay; details: time 60-480 min, TDE = time-dependent effect
[21] = target: T1, cAMP-dependent protein kinase catalytic subunit alpha; assay: Displacement of ARC-1063 fluorescent probe from recombinant human PKAC-alpha assessed as dissociation half life preincubated for 1 hr followed by photoluminescent probe addition by time-gated luminescence intensity based assay
[22] = GSH reactivity in potassium phosphate buffer at pH 7.4 assessed as half life at 0.15 mM at 30 degreeC measured for 30 to 60 mins by HPLC-MS analysis; format: physicochemical; details: potassium phosphate buffer with GSH, time 30-60 min
[23] = target: T1, cAMP-dependent protein kinase catalytic subunit alpha; assay: Binding affinity to human recombinant PKAC-alpha assessed as inactivation constant measured upto 60 mins by Western blot analysis
[24] = target: T1, cAMP-dependent protein kinase catalytic subunit alpha; assay: Binding affinity to human recombinant PKAC-alpha at Cys199 residue assessed as compound-protein adduct formation by measuring mass difference at 3.5 uM incubated for 2 hrs by LC-MS/MS analysis
[25] = Drug degradation in phosphate buffer at pH 7.4 assessed as half life at 0.15 mM at 37 degreeC measured for 30 to 60 mins by HPLC-MS analysis; format: ADME; details: time 30-60 min
[26] = target: T1, cAMP-dependent protein kinase catalytic subunit alpha; assay: Binding affinity to human recombinant PKAC-alpha assessed as inactivation constant incubated for 1 hr by time-gated luminescence intensity based displacement assay
[27] = Drug degradation in phosphate buffer at pH 7.4 assessed as half life at 0.15 mM at 30 degreeC measured for 30 to 60 mins by HPLC-MS analysis; format: ADME; details: time 30-60 min
[28] = GSH reactivity in potassium phosphate buffer at pH 7.4 assessed as half life at 0.15 mM at 37 degreeC measured for 30 to 60 mins by HPLC-MS analysis; format: physicochemical; details: potassium phosphate buffer with GSH, time 30-60 min
[29] = target: T1, cAMP-dependent protein kinase catalytic subunit alpha; assay: Binding affinity to human recombinant PKACalpha assessed as compound-protein adduct formation by measuring half life at 30 degreeC
[30] = target: T1, cAMP-dependent protein kinase catalytic subunit alpha; assay: Inhibition of ARC-1063 fluorescent probe binding to recombinant human PKAC-alpha incubated for 1 hr by time-gated luminescence intensity based displacement assay
[31] = target: Aurora kinase B (Homo sapiens) (UniProt Q96GD4); assay: Inhibition of N-terminal 6His-tagged active recombinant full length human Aurora B-mediated phosphorylation assessed as residual activity at 100 nM relative to control
Homo sapiens = species on record: Homo sapiens; assay: Selectivity index, ratio of Kd for N-terminal 6His-tagged active recombinant human spiked Akt3 S472D mutant (117 to end residues) to Kd for human recombinant PKACalpha
[32] = target: RAC-alpha serine/threonine-protein kinase (Homo sapiens) (UniProt P31749); assay: Inhibition of human PKBalpha assessed as residual activity at 0.1 uM in presence of ATP by radiometric filter-binding assay relative to control
[33] = target: Rho-associated protein kinase 2 (Homo sapiens) (UniProt O75116); assay: Inhibition of recombinant human GST-tagged ROCK-2 catalytic domain (1 to 552 residues) assessed as residual activity at 0.1 uM in presence of ATP by radiometric filter-binding assay relative to control
[34] = target: T1, cAMP-dependent protein kinase catalytic subunit alpha; assay: Displacement of ARC-1063 fluorescent probe from recombinant human PKAC-alpha assessed as binding constant (kon) preincubated for 1 hr followed by photoluminescent probe addition by time-gated luminescence intensity based assay
[35] = target: RAC-beta serine/threonine-protein kinase (Homo sapiens) (UniProt P31751); assay: Inhibition of human PKB-beta assessed as residual activity at 0.1 uM in presence of ATP by radiometric filter-binding assay relative to control
[36] = target: Ribosomal protein S6 kinase alpha-5 (Homo sapiens) (UniProt O75582); assay: Inhibition of N-terminal 6His-tagged recombinant human spiked MSK1 (2 to end residues) assessed as residual activity relative to control
[37] = target: T1, cAMP-dependent protein kinase catalytic subunit alpha; assay: Displacement of ARC-1063 fluorescent probe from recombinant human PKAC-alpha assessed as dissociation equilibrium constant preincubated for 1 hr followed by photoluminescent probe addition by time-gated luminescence intensity based assay
[38] = target: T1, cAMP-dependent protein kinase catalytic subunit alpha; assay: Inhibition of recombinant human PKAC-alpha assessed as residual activity at 0.1 uM in presence of ATP by radiometric filter-binding assay relative to control
[39] = target: T2, Aurora kinase A (Homo sapiens); assay: Inhibition of N-terminal 6His-tagged active recombinant full length human Aurora A-mediated phosphorylation assessed as residual activity at 100 nM relative to control

Sequence of RAC-gamma serine/threonine-protein kinase (Homo sapiens), Q9Y243 [S472D] (Q9Y243 whole entry S472D): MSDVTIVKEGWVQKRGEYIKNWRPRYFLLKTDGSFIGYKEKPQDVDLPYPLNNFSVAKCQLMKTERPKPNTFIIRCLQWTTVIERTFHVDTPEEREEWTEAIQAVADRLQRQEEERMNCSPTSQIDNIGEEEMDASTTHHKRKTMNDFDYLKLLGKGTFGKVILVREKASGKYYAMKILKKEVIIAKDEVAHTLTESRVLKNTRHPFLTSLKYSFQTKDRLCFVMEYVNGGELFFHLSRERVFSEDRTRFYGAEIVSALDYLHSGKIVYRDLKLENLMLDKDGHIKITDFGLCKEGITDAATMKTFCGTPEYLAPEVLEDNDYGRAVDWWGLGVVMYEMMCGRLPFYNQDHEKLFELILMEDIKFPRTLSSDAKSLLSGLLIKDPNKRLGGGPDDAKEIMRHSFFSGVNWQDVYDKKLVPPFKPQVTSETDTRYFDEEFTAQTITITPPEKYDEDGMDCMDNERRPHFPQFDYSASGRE
Sequence of Ribosomal protein S6 kinase alpha-5 (Homo sapiens) (O75582 whole entry, looked up): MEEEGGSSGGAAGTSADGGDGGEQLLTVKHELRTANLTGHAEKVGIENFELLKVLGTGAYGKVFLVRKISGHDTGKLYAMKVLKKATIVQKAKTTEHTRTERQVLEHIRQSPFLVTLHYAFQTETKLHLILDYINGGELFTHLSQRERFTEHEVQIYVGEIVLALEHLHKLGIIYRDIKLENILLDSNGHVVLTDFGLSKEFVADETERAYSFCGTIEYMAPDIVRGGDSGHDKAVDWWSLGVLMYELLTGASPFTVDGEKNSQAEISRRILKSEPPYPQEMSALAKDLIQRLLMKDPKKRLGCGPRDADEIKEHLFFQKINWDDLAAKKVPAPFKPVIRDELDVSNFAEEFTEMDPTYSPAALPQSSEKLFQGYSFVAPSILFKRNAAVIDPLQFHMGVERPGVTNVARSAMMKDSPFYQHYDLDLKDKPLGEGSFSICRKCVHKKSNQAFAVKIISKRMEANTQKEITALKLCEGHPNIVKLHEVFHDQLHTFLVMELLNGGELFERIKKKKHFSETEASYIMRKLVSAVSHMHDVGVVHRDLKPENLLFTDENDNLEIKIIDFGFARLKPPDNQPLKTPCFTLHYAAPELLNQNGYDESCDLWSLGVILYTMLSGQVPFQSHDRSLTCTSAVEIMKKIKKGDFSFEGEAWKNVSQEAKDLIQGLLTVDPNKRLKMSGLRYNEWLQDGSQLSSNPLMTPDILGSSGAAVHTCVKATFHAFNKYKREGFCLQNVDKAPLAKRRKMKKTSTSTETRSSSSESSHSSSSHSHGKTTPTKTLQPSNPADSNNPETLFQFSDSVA
Sequence of Rho-associated protein kinase 2 (Homo sapiens) (O75116 whole entry, looked up, the tested form may be a part): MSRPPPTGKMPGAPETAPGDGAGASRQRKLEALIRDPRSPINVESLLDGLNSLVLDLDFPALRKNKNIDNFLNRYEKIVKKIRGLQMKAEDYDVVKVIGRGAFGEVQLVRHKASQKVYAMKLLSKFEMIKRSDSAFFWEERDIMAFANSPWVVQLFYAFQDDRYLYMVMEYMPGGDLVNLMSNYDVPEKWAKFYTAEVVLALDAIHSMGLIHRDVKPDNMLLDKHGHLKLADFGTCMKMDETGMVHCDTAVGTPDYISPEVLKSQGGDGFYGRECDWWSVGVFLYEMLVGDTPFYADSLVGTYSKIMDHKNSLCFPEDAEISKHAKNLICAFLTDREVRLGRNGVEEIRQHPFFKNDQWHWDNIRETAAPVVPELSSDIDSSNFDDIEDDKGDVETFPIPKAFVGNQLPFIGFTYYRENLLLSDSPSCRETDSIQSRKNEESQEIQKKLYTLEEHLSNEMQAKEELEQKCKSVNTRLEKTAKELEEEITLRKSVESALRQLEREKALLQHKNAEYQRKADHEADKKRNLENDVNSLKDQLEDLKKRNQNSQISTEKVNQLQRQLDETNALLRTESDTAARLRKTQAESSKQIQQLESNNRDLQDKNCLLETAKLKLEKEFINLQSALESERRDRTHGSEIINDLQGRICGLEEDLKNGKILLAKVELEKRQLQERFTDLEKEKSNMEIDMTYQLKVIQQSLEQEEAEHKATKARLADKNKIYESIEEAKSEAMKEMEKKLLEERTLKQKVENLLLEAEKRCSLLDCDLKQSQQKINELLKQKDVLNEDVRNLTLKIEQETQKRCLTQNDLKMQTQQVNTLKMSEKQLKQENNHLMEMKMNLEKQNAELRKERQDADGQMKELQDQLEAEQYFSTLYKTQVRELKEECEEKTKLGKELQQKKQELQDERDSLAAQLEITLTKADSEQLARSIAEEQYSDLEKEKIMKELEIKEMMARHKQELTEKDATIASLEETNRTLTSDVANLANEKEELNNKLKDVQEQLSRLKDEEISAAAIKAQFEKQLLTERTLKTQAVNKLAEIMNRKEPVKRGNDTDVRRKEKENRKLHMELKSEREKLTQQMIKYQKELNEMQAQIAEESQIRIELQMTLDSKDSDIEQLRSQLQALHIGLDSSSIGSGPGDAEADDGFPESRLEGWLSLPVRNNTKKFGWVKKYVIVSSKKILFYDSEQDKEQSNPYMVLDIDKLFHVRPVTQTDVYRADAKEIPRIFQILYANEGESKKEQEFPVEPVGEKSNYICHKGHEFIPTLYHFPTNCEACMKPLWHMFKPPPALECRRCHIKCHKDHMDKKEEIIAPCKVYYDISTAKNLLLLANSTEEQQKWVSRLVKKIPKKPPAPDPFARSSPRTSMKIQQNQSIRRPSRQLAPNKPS
Sequence of RAC-alpha serine/threonine-protein kinase (Homo sapiens) (P31749 whole entry, the tested form may be a part): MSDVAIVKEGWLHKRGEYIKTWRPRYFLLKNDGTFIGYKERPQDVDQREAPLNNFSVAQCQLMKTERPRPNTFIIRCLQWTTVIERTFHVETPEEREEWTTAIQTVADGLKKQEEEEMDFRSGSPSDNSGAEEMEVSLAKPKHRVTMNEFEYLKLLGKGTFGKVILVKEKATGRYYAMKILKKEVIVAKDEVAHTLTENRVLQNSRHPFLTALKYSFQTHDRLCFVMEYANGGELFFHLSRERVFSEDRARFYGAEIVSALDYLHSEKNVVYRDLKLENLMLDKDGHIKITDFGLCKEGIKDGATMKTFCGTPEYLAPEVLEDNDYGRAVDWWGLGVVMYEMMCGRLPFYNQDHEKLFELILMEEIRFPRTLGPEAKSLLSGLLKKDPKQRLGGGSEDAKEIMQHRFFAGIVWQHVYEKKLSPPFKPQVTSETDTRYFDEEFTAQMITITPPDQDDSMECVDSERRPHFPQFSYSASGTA
Sequence of Aurora kinase B (Homo sapiens) (Q96GD4 whole entry): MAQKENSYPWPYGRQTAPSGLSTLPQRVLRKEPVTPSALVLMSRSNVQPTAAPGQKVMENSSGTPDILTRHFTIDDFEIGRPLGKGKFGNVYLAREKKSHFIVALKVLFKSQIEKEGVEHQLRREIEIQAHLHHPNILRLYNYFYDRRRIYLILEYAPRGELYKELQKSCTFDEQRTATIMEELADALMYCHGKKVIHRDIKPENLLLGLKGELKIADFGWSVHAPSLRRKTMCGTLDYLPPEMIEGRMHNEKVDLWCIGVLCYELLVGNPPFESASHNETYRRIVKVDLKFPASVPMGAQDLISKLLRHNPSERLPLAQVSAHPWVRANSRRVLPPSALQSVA
Sequence of RAC-beta serine/threonine-protein kinase (Homo sapiens) (P31751 whole entry): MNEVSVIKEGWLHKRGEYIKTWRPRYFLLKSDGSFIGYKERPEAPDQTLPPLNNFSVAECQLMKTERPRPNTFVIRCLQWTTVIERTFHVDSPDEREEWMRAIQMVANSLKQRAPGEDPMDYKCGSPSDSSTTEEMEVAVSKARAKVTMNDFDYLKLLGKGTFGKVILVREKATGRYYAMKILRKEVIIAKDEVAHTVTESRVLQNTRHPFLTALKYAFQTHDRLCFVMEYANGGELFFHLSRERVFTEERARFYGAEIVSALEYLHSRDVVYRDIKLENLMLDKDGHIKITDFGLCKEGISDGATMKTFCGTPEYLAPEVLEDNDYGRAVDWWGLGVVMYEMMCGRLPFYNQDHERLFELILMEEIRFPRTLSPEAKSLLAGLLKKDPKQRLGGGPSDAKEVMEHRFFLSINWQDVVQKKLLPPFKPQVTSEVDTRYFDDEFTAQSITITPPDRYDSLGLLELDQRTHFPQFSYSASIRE

CC[C@H](C)[C@H](NC(=O)CCC(=O)N[C@@H](CCCCNC(=O)[C@@H](CCCNC(=N)N)NC(=O)CCCCCCCC(=O)N1CCN(c2ncnc3[nH]ccc23)CC1)C(=O)N[C@H](CCCNC(=N)N)C(=O)N[C@H](CCCNC(=N)N)C(=O)N[C@H](CCCCNC(=O)CCCCC[N+]1=C(/C=C/C=C/C=C2\N(C)c3ccc4ccccc4c3C2(C)C)C(C)(C)c2c1ccc1ccccc21)C(N)=O)C(=O)NCC(=O)CF
Drug uptake [1]: Active
Activity [2]: Active
Activity [3]: Active
Drug uptake [4]: Active

CC[C@H](C)[C@H](NC(=O)CCC(=O)N[C@@H](CCCCNC(=O)[C@@H](CCCNC(=N)N)NC(=O)CCCCCCCC(=O)N1CCN(c2ncnc3[nH]ccc23)CC1)C(=O)N[C@H](CCCNC(=N)N)C(=O)N[C@H](CCCNC(=N)N)C(=O)N[C@H](CCCCNC(=O)c1ccc(-c2c3ccc(=[N+](C)C)cc-3oc3cc(N(C)C)ccc23)c(C(=O)O)c1)C(N)=O)C(=O)NCC(=O)CF
Activity [5]: Active
Activity [6]: Active
Activity [7]: Active
Activity [8]: Active
Activity [9]: Active
Activity [10]: Active
Activity [11]: Active
Activity [12]: Active
Activity [13]: Active
Activity [14]: Active
Activity [15]: Active
Activity [16]: Active
Activity [17]: Active
Activity [18]: Active

CC[C@H](C)[C@H](NC(=O)CCC(=O)N[C@@H](CCCCNC(=O)[C@@H](CCCNC(=N)N)NC(=O)CCCCCCCC(=O)N1CCN(c2ncnc3[nH]ccc23)CC1)C(=O)N[C@H](CCCNC(=N)N)C(=O)N[C@H](CCCNC(=N)N)C(N)=O)C(=O)NCC(=O)CF
Ki [19]: 0.023 nM
Activity [20]: Tde
T1/2 [21]: 19 min
half-life at 150 µM [22]: 44.4 min
Kinact [23]: 5.8 10^-4/s
Activity [24]: Active
half-life at 150 µM [25]: 57 min
Kinact [26]: 6.1 10^-4/s
half-life at 150 µM [27]: 78.6 min
half-life at 150 µM [28]: 22.2 min
T1/2 [29]: 19.2 min

CC[C@H](C)[C@H](NC(=O)CCC(=O)N[C@@H](CCCCNC(=O)[C@@H](CCCNC(=N)N)NC(=O)CCCCCCCC(=O)N1CCN(c2ncnc3[nH]ccc23)CC1)C(=O)N[C@H](CCCNC(=N)N)C(=O)N[C@H](CCCNC(=N)N)C(N)=O)C(=O)NCC(C)=O
IC50 [30]: 24 nM
T1/2 [21]: 4.5 min
Activity [31]: 93%
Ratio (Homo sapiens): 200
Activity [32]: 8%
Activity [33]: 8%
K [34]: 1.4 10^8/M/s
Activity [35]: 9%
Activity [36]: 21%
Kd [37]: 0.019 nM
Activity [38]: 2%
Activity [39]: 102%

From ChEMBL document CHEMBL5137094, “Construction of Covalent Bisubstrate Inhibitor of Protein Kinase Reacting with Cysteine Residue at Substrate-Binding Site” (J Med Chem, 2022)
